According to PubChem BioAssay AID1918952 (Molecular Pharmacology Branch, DTP, NCI, 2023):

System: LG0703-F948-PDC complex spheroid viability
Assay: Anticancer human tumor LG0703-F948-PDC patient-derived lung adenocarcinoma cell line growth inhibition
Settings: for IC50: curve of first compound; for viability, T/C: stronger effect = lower value
Outline: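 Complex spheroids of tumor cells with HUVEC and human MSCs, exposed to iadademstat combined with other agents. Each agent tested in half-log steps from near clinical Cmax (else 10 microM top), DMSO ≤0.25%.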

[1] = second compound 0.1 µM, first compound 0.00949 µM
[2] = second compound 0.1 µM, first compound 0.03 µM
[3] = second compound 0.1 µM, first compound 0.0949 µM
[4] = second compound 0.1 µM, first compound 0.3 µM
[5] = second compound 0.1 µM, first compound 0.949 µM
[6] = second compound 0.1 µM, first compound 3 µM
[7] = second compound 0.316 µM, first compound 0.00949 µM
[8] = second compound 0.316 µM, first compound 0.03 µM
[9] = second compound 0.316 µM, first compound 0.0949 µM
[10] = second compound 0.316 µM, first compound 0.3 µM
[11] = second compound 0.316 µM, first compound 0.949 µM
[12] = second compound 0.316 µM, first compound 3 µM
[13] = second compound 1 µM, first compound 0.00949 µM
[14] = second compound 1 µM, first compound 0.03 µM
[15] = second compound 1 µM, first compound 0.0949 µM
[16] = second compound 1 µM, first compound 0.3 µM
[17] = second compound 1 µM, first compound 0.949 µM
[18] = second compound 1 µM, first compound 3 µM
[19] = second compound 3.16 µM, first compound 0.00949 µM
[20] = second compound 3.16 µM, first compound 0.03 µM
[21] = second compound 3.16 µM, first compound 0.0949 µM
[22] = second compound 3.16 µM, first compound 0.3 µM
[23] = second compound 3.16 µM, first compound 0.949 µM
[24] = second compound 3.16 µM, first compound 3 µM
[25] = second compound 10 µM, first compound 0.00949 µM
[26] = second compound 10 µM, first compound 0.03 µM
[27] = second compound 10 µM, first compound 0.0949 µM
[28] = second compound 10 µM, first compound 0.3 µM
[29] = second compound 10 µM, first compound 0.949 µM
[30] = second compound 10 µM, first compound 3 µM
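Further: spheroids exposed to agents for seven days before readout.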
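Wherever viability, T/C is given: 100% = DMSO vehicle control wells as normalization base.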

Row | SMILES | IC50 (second compound 0.1 µM) [nM] | IC50 (second compound 0.316 µM) [nM] | IC50 (second compound 1 µM) [nM] | IC50 (second compound 3.16 µM) [nM] | IC50 (second compound 10 µM) [nM] | viability, T/C [1] [%] | viability, T/C [2] [%] | viability, T/C [3] [%] | viability, T/C [4] [%] | viability, T/C [5] [%] | viability, T/C [6] [%] | viability, T/C [7] [%] | viability, T/C [8] [%] | viability, T/C [9] [%] | viability, T/C [10] [%] | viability, T/C [11] [%] | viability, T/C [12] [%] | viability, T/C [13] [%] | viability, T/C [14] [%] | viability, T/C [15] [%] | also measured
1 | NS(=O)(=O)OCC1CC(n2ccc3c(NC4CCc5ccccc54)ncnc32)CC1O (stereo not given) + NC1CCC(NC2CC2c2ccccc2)CC1 | 546 | 607 | 670 | 633 | 467 | 106 | 111 | 106 | 70.7 | 31.4 | 19.1 | 111 | 123 | 109 | 80.5 | 30.7 | 17.1 | 113 | 144 | 105 | viability, T/C [16]: 83.3%; viability, T/C [17]: 35.9%; viability, T/C [18]: 16.2%; viability, T/C [19]: 124%; viability, T/C [20]: 141%; viability, T/C [21]: 112%; viability, T/C [22]: 82.5%; viability, T/C [23]: 32.4%; viability, T/C [24]: 13.6%; viability, T/C [25]: 124%; viability, T/C [26]: 124%; viability, T/C [27]: 124%; viability, T/C [28]: 69.3%; viability, T/C [29]: 20.4%; viability, T/C [30]: 8.21%
2 | O=C(C=Cc1cccc(S(=O)(=O)Nc2ccccc2)c1)NO + NC1CCC(NC2CC2c2ccccc2)CC1 | 78.2 | 83.5 | 83.2 | 77.8 | 57.6 | 103 | 88 | 41.8 | 10.5 | 1.71 | 0.44 | 114 | 93.5 | 44.5 | 10.6 | 1.43 | 0.17 | 126 | 89.5 | 48.5 | viability, T/C [16]: 9.18%; viability, T/C [17]: 1.34%; viability, T/C [18]: 0.11%; viability, T/C [19]: 102%; viability, T/C [20]: 86%; viability, T/C [21]: 42.9%; viability, T/C [22]: 8.17%; viability, T/C [23]: 0.32%; viability, T/C [24]: 0.12%; viability, T/C [25]: 114%; viability, T/C [26]: 77.3%; viability, T/C [27]: 29.8%; viability, T/C [28]: 4%; viability, T/C [29]: 0.21%; viability, T/C [30]: 0.19%
